Experimental data published in patent US11166980B2, “Compositions, systems, kits, and methods for treating an infection” (Novan, Inc., priority 2016, dated 2021).
In brackets after ≈: the same amount, converted by molar mass. Like-named read-outs stand apart in the source and are kept apart here.

Tests used:
Format in all cases: cell-based
[1] = test system: Malassezia furfur; experiment: Minimum inhibitory concentration (supplemented RPMI-1640)
Method: (§1) The minimum inhibitory concentration (MIC) of Nitricil™ NVN1 was determined in vitro for 40 strains of fungi to determine the spectrum of antifungal activity. All MIC testing was conducted in accordance with the Clinical and Laboratory Standards Institute (CLSI) guidelines for antimicrobial testing of yeasts (M27-A2) and filamentous fungi (M38-A2), apart from the lipophilic Malassezia species, which were incubated in supplemented buffered RPMI-1640 medium. The challenge strains were exposed to a series of doubling dilutions of Nitricil™ NVN1 prepared in RPMI-1640 medium in triplicate. Fungal species were also challenged with ketoconazole, prepared in DMSO, as a comparator. Tubes were inoculated with fungal suspensions to a final concentration of 0.5-2.5×10^3 cells/mL for yeasts and 0.4-5.0×10^4 colony-forming units (CFU)/mL, for filamentous fungi. The MIC was determined following a 1- to 4-day incubation period.

[2] = test system: Candida tropicalis; experiment: Minimum inhibitory concentration (CLSI); settings: NCPF8760
Method: as §1

[3] = test system: Candida albicans; experiment: Minimum inhibitory concentration (CLSI)
Method: as §1

[4] = test system: Trichophyton mentagrophytes; experiment: Minimum inhibitory concentration (CLSI)
Method: as §1

[5] = test system: Candida lusitaniae; experiment: Minimum inhibitory concentration (CLSI); settings: Clavispora lusitaniae, ATCC200950
Method: as §1

[6] = test system: Trichophyton rubrum; experiment: Minimum inhibitory concentration (CLSI)
Method: as §1

[7] = test system: Fusarium keratoplasticum; experiment: Minimum inhibitory concentration (CLSI); settings: ATCC36031
Method: as §1

[8] = test system: Epidermophyton floccosum; experiment: Minimum inhibitory concentration (CLSI)
Method: as §1

[9] = test system: Fusarium oxysporum; experiment: Minimum inhibitory concentration (CLSI); settings: ATCC62705
Method: as §1

[10] = test system: Fusarium solani; experiment: Minimum inhibitory concentration (CLSI); settings: ATCC56480
Method: as §1

[11] = test system: 40 strains of fungi; experiment: Minimum inhibitory concentration, whole panel
Method: as §1
The broad-spectrum antifungal activity of Nitricil™ NVN1 was assessed via growth inhibition experiments against 40 different fungal strains per CLSI M27-A2 and M38-A2 methodology (CLSI, 2008) for assessment of yeasts and filamentous fungi respectively utilizing ketoconazole as the antifungal comparator. […]

CC(=O)N1CCN(c2ccc(OCC3COC(Cn4ccnc4)(c4ccc(Cl)cc4Cl)O3)cc2)CC1 (centres unmarked) [Ketoconazole, ketoconazole]
MIC ([1]; ATCC14521, strain ATCC #14521): > 32 µg/mL
MIC ([1]; NCPF3349, strain NCPF #3349): > 32 µg/mL
MIC ([1]; NCPF8211, strain NCPF #8211): 16 µg/mL (≈ 30.1 µM)
MIC [2]: 32 µg/mL (≈ 60.2 µM)
MIC ([3]; Candida albicans, ATCC10231, strain ATCC #10231, read-out: MIC): < 0.063 µg/mL
MIC ([3]; Candida albicans, ATCC58716, strain ATCC #58716, read-out: MIC): 16 µg/mL (≈ 30.1 µM)
MIC ([3]; Candida albicans, ATCC96901, strain ATCC #96901, read-out: MIC): > 32 µg/mL
MIC ([3]; Candida albicans, strain BLSI #112613Ca1, read-out: MIC): > 32 µg/mL
MIC ([3]; strain BLSI #112613Ca2): >32.0 µg/mL
MIC ([4]; ATCC9533, strain ATCC #9533, read-out: MIC): 1 µg/mL (≈ 1.88 µM)
MIC ([4]; ATCC18749): 0.125 µg/mL (≈ 0.235 µM)
MIC ([4]; ATCC28939, strain ATCC #28939, read-out: MIC): 1 µg/mL (≈ 1.88 µM)
MIC ([4]; NCPF0224, strain NCPF #0224, read-out: MIC): 0.25 µg/mL (≈ 0.47 µM)
MIC ([4]; NCPF5024, strain NCPF #5024, read-out: MIC): 0.5 µg/mL (≈ 0.941 µM)
MIC [5]: < 0.063 µg/mL
MIC ([6]; ATCC10218, strain ATCC #10218, read-out: MIC): < 0.063 µg/mL
MIC ([6]; ATCC22402, strain ATCC #22402, read-out: MIC): < 0.063 µg/mL
MIC ([6]; ATCC28188): 0.125 µg/mL (≈ 0.235 µM)
MIC ([6]; ATCC44697, strain ATCC #44697, read-out: MIC): > 32 µg/mL
MIC ([6]; NCPF0113, strain NCPF #0113, read-out: MIC): > 32 µg/mL
MIC ([6]; NCPF0118, strain NCPF #0118, read-out: MIC): < 0.063 µg/mL
MIC ([6]; NCPF0295, strain NCPF #0295, read-out: MIC): > 32 µg/mL
MIC ([6]; NCPF5025, strain NCPF #5025, read-out: MIC): > 32 µg/mL
MIC ([6]; strain ATCC #MYA-4438, read-out: MIC): > 32 µg/mL
MIC [7]: > 32 µg/mL
MIC ([8]; ATCC38826, strain ATCC #38826, read-out: MIC): 4 µg/mL (≈ 7.53 µM)
MIC ([8]; ATCC44685): 0.125 µg/mL (≈ 0.235 µM)
MIC ([8]; ATCC52061, strain ATCC #52061, read-out: MIC): 1 µg/mL (≈ 1.88 µM)
MIC ([8]; ATCC52063, strain ATCC #52063, read-out: MIC): > 32 µg/mL
MIC ([8]; ATCC52066, strain ATCC #52066, read-out: MIC): > 32 µg/mL
MIC ([8]; NCPF5011, strain NCPF #5011, read-out: MIC): > 32 µg/mL
MIC ([8]; NCPF5012, strain NCPF #5012, read-out: MIC): > 32 µg/mL
MIC [9]: > 32 µg/mL
MIC [10]: > 32 µg/mL
fold range of MIC values for all fungal species tested [11]: > 500 fold
